One test has as its target TBK1 (Homo sapiens (Human), UniProt Q9UHD2). The test can be described thus: TR-FRET kinase assay, TBK1. To be noted: read-out: TBK1-IC50; full length recombinant TBK1 2.5 nM, 2x Km ATP, 1 μM peptide, 240 min at 25° C.; geometric mean of minimum four determinations.
The target of the next test is IKKε (Homo sapiens (Human), UniProt Q14164). The test can be described thus: TR-FRET kinase assay, IKKε. The format is biochemical. The conditions noted are these: full length recombinant IKKε 0.3 nM, 2x Km ATP, 1 μM peptide, 240 min at 25° C.; geometric mean of minimum four determinations. From the text:
Biological Assay for TBK1 and IKKs:

pIC50: −log10 of the molar value. Bounds are passed on as bounds.

TBK1, sequence (Q9UHD2 whole entry): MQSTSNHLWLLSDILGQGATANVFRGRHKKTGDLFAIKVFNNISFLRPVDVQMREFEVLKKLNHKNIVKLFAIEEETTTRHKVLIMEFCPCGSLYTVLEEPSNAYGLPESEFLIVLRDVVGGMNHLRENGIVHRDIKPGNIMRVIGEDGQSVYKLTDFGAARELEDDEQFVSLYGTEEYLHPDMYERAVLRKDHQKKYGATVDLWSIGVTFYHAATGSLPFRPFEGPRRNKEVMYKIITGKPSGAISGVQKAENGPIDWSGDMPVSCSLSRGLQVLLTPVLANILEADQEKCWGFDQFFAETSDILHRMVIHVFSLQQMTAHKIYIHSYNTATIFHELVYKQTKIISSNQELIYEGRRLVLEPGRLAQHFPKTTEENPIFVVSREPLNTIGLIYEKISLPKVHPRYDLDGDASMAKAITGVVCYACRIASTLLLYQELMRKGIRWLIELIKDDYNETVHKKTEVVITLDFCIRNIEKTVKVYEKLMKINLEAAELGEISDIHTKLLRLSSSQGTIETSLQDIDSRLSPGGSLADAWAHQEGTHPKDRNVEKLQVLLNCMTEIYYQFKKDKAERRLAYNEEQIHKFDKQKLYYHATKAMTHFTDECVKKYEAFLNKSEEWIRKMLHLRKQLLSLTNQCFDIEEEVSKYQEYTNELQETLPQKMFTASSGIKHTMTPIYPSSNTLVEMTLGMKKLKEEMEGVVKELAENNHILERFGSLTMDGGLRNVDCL
IKKε, sequence (Q14164 whole entry): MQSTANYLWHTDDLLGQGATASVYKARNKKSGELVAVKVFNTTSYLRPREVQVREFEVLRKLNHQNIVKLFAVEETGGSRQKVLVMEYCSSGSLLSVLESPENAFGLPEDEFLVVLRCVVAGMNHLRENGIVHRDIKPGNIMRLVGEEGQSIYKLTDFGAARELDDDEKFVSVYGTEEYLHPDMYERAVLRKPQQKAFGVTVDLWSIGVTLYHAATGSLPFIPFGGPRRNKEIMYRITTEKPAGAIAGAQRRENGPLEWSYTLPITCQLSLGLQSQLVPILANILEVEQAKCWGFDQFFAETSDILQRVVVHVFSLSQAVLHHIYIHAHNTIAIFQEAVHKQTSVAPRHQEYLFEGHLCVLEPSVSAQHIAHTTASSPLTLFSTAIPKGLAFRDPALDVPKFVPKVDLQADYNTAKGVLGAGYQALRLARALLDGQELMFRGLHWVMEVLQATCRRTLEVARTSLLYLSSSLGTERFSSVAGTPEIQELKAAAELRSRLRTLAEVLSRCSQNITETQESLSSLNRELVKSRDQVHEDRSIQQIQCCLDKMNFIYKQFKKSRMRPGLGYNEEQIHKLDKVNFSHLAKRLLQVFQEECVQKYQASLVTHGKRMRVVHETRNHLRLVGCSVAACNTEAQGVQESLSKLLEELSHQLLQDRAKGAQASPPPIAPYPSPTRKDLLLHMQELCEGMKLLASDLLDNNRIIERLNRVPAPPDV

Regarding `N#Cc1cc(-c2ccnc3[nH]c(-c4ccc(C(=O)C(F)(F)F)cc4)cc23)ccc1OC1CCOCC1` [Example 237, 2-((tetrahydro-2H-pyran-4-yl)oxy)-5-(2-(4-(2,2,2-trifluoroacetyl)phenyl)-1H-pyrrolo[2,3-b]pyridin-4-yl)benzonitrile], the pIC50 on TBK1 is 7.94; at IKKε it was 7.53.

Regarding `COC(C)(C)c1ccc(-c2cc3c(-c4cc(C#N)c(OC5CCOCC5)cn4)ccnc3[nH]2)cc1` [Example 169, 2-(2-(4-(2-Methoxypropan-2-yl)phenyl)-1H-pyrrolo[2,3-b]pyridin-4-yl)-5-((tetrahydro-2H-pyran-4-yl)oxy)isonicotinonitrile], the pIC50 at TBK1 was 8.32; at IKKε it was 7.88.

Take `N#Cc1cc(-c2ncnc3[nH]c(-c4ccc(N5CCOCC5)cc4)nc23)ccc1OCC1CC1` [Example 202, 2-(cyclopropylmethoxy)-5-(8-(4-morpholinophenyl)-9H-purin-6-yl)benzonitrile]: the pIC50 on TBK1 and at IKKε was less than 6.00 in each case.

Turning to `N#Cc1cc(-c2ncnc3[nH]c(-c4ccc(N5CCOCC5)cc4)nc23)ccc1O[C@@H]1CCN(C(=O)CO)C1` [Example 208, (R)-2-((1-(2-hydroxyacetyl)pyrrolidin-3-yl)oxy)-5-(8-(4-morpholinophenyl)-9H-purin-6-yl)benzonitrile], the pIC50 is 8.77 on TBK1 and 8.12 at IKKε.

For the compound `N#Cc1cc(-c2ncnc3[nH]c(-c4ccc(N5CCOCC5)cc4)cc23)ccc1O[C@@H]1CCNC1` [Example 106, (R)-5-(6-(4-morpholinophenyl)-7H-pyrrolo[2,3-d]pyrimidin-4-yl)-2-(pyrrolidin-3-yloxy)benzonitrile], the figures for the pIC50 on TBK1 and on IKKε were 8.31 and 7.72, respectively.

For `N#Cc1cc(-c2ncnc3[nH]c(-c4cccc(C(N)=O)c4)cc23)ccc1OC1CCOCC1` [Example 171, 3-(4-(3-cyano-4-((tetrahydro-2H-pyran-4-yl)oxy)phenyl)-7H-pyrrolo[2,3-d]pyrimidin-6-yl)benzamide], the pIC50 on TBK1 was 8.19; at IKKε it was 7.97.

As to `CC(C)(C)OC(=O)N1CCC(Oc2ccc(-c3ncnc4[nH]c(-c5ccc(N6CCOCC6)c(F)c5)nc34)cc2C#N)CC1` [Example 245, tert-butyl 4-(2-cyano-4-(8-(3-fluoro-4-morpholinophenyl)-9H-purin-6-yl)phenoxy)piperidine-1-carboxylate], the pIC50 at TBK1 and at IKKε was 6.00 throughout.

Take `N#Cc1cc(-c2ccnc3[nH]c(-c4ccc(N5CCOCC5)cc4)cc23)ccc1OC1CCCOC1` (stereo not shown) [Example 239, 5-(2-(4-morpholinophenyl)-1H-pyrrolo[2,3-b]pyridin-4-yl)-2-((tetrahydro-2H-pyran-3-yl)oxy)benzonitrile]: the pIC50 at TBK1 is 7.35; on IKKε, 6.71.

Regarding `COc1cc(-c2cc3c(-c4ccc(OC5CCOCC5)c(C#N)c4)ncnc3[nH]2)ccc1N1CCN(C(=O)CO)CC1` [Example 134, 5-(6-(4-(4-(2-hydroxyacetyl)piperazin-1-yl)-3-methoxyphenyl)-7H-pyrrolo[2,3-d]pyrimidin-4-yl)-2-((tetrahydro-2H-pyran-4-yl)oxy)benzonitrile], the pIC50 at TBK1 is 8.96; at IKKε, 8.22.

Turning to `N#Cc1cc(-c2ccnc3[nH]c(-c4cccc(N5CCOCC5)c4)cc23)ccc1OC1CCOCC1` [Example 78, 5-(2-(3-morpholinophenyl)-1H-pyrrolo[2,3-b]pyridin-4-yl)-2-((tetrahydro-2H-pyran-4-yl)oxy)benzonitrile], the pIC50 is 7.59 at TBK1 and 7.40 at IKKε.

On to `CN1CCN(c2ccc(-c3nc4c(-c5ccc(OC6CCOCC6)c(C#N)c5)ncnc4[nH]3)cc2)CC1` [Example 212, 5-(8-(4-(4-methylpiperazin-1-yl)phenyl)-9H-purin-6-yl)-2-((tetrahydro-2H-pyran-4-yl)oxy)benzonitrile], for which the negative-log IC50 (pIC50) on TBK1 is 8.94; on IKKε, 8.97.

For the origin of these results see patent US10072001B2, “Tank-binding kinase inhibitor compounds” (Gilead Sciences, Inc., priority 2014, dated 2018).
